Data: patent US8013156B2 (Exelixis, Inc., priority 2003, dated 2011)

Biological target: Tie-2 (Homo sapiens, UniProt Q02763)
Test: Tie-2 tyrosine kinase activity assay (luciferase/luciferin ATP consumption with pEY substrate, or 33P-ATP incorporation)
Format: biochemical
Conditions: human enzyme Tie-2
Method: One measure of inhibition is Ki. […] The Ki for a compound is determined from the IC50 based on three assumptions. First, only one compound molecule binds to the enzyme and there is no cooperativity. […] Third, the enzymatic rate of the enzyme-inhibitor complex is zero. The rate data (i.e. compound concentration) are fitted to the equation:
[formula] where V is the observed rate, Vmax, is the rate of the free enzyme, I0 is the inhibitor concentration, E0 is the enzyme concentration, and Kd is the dissociation constant of the enzyme-inhibitor complex.
Tyrosine kinase activity is determined by 1) measurement of kinase-dependent ATP consumption by in the presence of a generic substrate such as […], tyrosine (pEY), by luciferase/luciferin-mediated chemiluminescence or; 2) incorporation of radioactive phosphate derived from ^33P-ATP into a generic substrate which has been adsorbed onto the well surface of polystyrene microtiter plates. Phosphorylated substrate products are quantified by scintillation spectrometry.
Inhibition is indicated as IC50 with following key: A=IC50 less than 50 nM, B=IC50 greater than 50 nM, but less than or equal to 1000 nM, C=IC50 greater than 1000 nM, but less than 10,000 nM, D=IC50 10,000 nM or greater, and “-”=no data available. The abbreviation for human enzyme, Tie-2, is defined as tyrosine kinase with immunoglobulin and EGF repeats.

Chain of Tie-2 (Q02763 23-1124): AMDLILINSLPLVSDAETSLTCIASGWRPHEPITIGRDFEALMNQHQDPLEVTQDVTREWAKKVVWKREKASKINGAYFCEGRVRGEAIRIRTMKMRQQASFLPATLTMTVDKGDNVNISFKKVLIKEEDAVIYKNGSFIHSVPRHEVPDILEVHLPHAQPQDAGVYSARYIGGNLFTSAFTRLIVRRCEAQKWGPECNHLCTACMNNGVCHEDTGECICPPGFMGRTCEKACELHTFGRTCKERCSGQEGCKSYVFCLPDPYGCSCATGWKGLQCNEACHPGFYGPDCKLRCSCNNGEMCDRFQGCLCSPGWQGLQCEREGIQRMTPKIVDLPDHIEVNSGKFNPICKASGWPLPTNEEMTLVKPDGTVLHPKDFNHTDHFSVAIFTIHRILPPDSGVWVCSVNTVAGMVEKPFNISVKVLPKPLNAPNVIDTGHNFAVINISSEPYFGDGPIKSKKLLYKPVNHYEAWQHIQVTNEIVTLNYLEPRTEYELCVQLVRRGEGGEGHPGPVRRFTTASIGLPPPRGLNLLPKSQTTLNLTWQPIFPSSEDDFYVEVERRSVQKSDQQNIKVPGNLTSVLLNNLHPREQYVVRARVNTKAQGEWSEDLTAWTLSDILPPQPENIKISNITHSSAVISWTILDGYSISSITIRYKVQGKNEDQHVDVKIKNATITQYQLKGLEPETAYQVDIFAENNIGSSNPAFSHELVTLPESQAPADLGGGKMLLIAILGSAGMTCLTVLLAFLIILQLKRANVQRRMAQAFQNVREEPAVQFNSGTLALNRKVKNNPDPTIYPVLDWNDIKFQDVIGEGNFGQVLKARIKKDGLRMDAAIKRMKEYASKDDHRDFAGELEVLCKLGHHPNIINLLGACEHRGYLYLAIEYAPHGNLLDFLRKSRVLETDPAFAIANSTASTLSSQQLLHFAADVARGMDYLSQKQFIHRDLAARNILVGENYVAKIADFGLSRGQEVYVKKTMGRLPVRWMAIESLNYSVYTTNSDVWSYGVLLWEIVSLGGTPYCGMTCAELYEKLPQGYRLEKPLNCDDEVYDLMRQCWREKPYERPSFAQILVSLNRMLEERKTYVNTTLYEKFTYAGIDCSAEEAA

| IC50 | Compound |
| --- | --- |
| 1000 to 10000 nM | CNC(=O)N1CCN(c2ncccc2OCc2ccnc(NC(=O)CN3CCN(C)CC3)c2)CC1 [Example 191, N-methyl-4-(3-{[(2-{[(4-methylpiperazin-1-yl)acetyl]amino}pyridin-4-yl)methyl]oxy}pyridin-2-yl)piperazine-1-carboxamide] |
| < 50 nM | Nc1nccc(COc2nsnc2N2CCN(C(=O)Nc3cc(F)cc(C(F)(F)F)c3)CC2)n1 [Example 239, 4-(4-{[(2-aminopyrimidin-4-yl)methyl]oxy}-1,2,5-thiadiazol-3-yl)-N-[3-fluoro-5-(trifluoromethyl)phenyl]piperazine-1-carboxamide] |
| < 50 nM | Nc1cc(COc2nsnc2N2CCN(C(=O)Nc3cccc(SC(F)(F)F)c3)CC2)ccn1 [Example 147, 4-(4-{[(2-aminopyridin-4-yl)methyl]oxy}-1,2,5-thiadiazol-3-yl)-N-{3-[(trifluoromethyl)thio]phenyl}piperazine-1-carboxamide] |
| ≥ 10000 nM | CC(=O)N1CCN(c2ncccc2OCc2ccnc(NC(=O)CN3CCN(C)CC3)c2)CC1 [Example 185, N-[4-({[2-(4-acetylpiperazin-1-yl)pyridin-3-yl]oxy}methyl)pyridin-2-yl]-2-(4-methylpiperazin-1-yl)acetamide] |
| 50 to 1000 nM | O=C(Nc1cc(C(F)(F)F)cc(C(F)(F)F)c1)N1CCN(c2nsnc2OCc2ccncn2)CC1 [Example 138, N-[3,5-bis(trifluoromethyl)phenyl]-4-{4-[(pyrimidin-4-ylmethyl)oxy]-1,2,5-thiadiazol-3-yl}piperazine-1-carboxamide] |
| ≥ 10000 nM | Nc1nccc(COc2cccnc2N2CCN(C(=O)N3CCCc4ccccc43)CC2)n1 [Example 219, 4-[({2-[4-(3,4-dihydroquinolin-1(2H)-ylcarbonyl)piperazin-1-yl]pyridin-3-yl}oxy)methyl]pyrimidin-2-amine] |
| < 50 nM | CCN1CCC(C(=O)Nc2cc(COc3nsnc3N3CCN(C(=O)Nc4cc(C(F)(F)F)cc(C(F)(F)F)c4)CC3)ccn2)CC1 [Example 146, N-[3,5-bis(trifluoromethyl)phenyl]-4-(4-{[(2-{[(1-ethylpiperidin-4-yl)carbonyl]amino}pyridin-4-yl)methyl]oxy}-1,2,5-thiadiazol-3-yl)piperazine-1-carboxamide] |
| < 50 nM | Nc1nccc(COc2cccnc2N2CCN(C(=O)Nc3cc(C(F)(F)F)cc(Cl)c3F)CC2)n1 [Example 249, 4-(3-{[(2-aminopyrimidin-4-yl)methyl]oxy}pyridin-2-yl)-N-[3-chloro-2-fluoro-5-(trifluoromethyl)phenyl]piperazine-1-carboxamide] |
| 50 to 1000 nM | O=C(Nc1cc(C(F)(F)F)cc(C(F)(F)F)c1)N1CCN(c2nccnc2OCc2ccnc(Cl)c2)CC1 [Example 84, N-[3,5-bis(trifluoromethyl)phenyl]-4-(3-{[(2-chloropyridin-4-yl)methyl]oxy}pyrazin-2-yl)piperazine-1-carboxamide] |
| < 50 nM | Nc1cc(COc2nsnc2N2CCN(C(=O)Nc3cc(C(F)(F)F)cc(C(F)(F)F)c3)CC2)ccn1 [Example 99, 4-(4-{[(2-aminopyridin-4-yl)methyl]oxy}-1,2,5-thiadiazol-3-yl)-N-[3,5-bis(trifluoromethyl)phenyl]piperazine-1-carboxamide] |
| ≥ 10000 nM | O=C(Nc1ccc(Cl)cc1)N1CCN(c2ncccc2OCc2ccncc2)CC1 [Example 103, N-(4-chlorophenyl)-4-{3-[(pyridin-4-ylmethyl)oxy]pyridin-2-yl}piperazine-1-carboxamide] |
| < 50 nM | CCc1cc(CC)cc(NC(=O)N2CCN(c3nccnc3OCc3ccnc(N)n3)CC2)c1 [Example 215, 4-(3-{[(2-aminopyrimidin-4-yl)methyl]oxy}pyrazin-2-yl)-N-(3,5-diethylphenyl)piperazine-1-carboxamide] |
| ≥ 10000 nM | O=C(Nc1cc(C(F)(F)F)cc(C(F)(F)F)c1)N1CCN(c2nsnc2OCc2ccnc(N3CCOC3=O)c2)CC1 [Example 159, N-[3,5-bis(trifluoromethyl)phenyl]-4-[4-({[2-(2-oxo-1,3-oxazolidin-3-yl)pyridin-4-yl]methyl}oxy)-1,2,5-thiadiazol-3-yl]piperazine-1-carboxamide] |
| 50 to 1000 nM | CC1CN(c2nccnc2OCc2ccncc2)C(C)CN1C(=O)Nc1cccc(C(F)(F)F)c1 (stereo not shown) [Example 79, 2,5-dimethyl-4-{3-[(pyridin-4-ylmethyl)oxy]pyrazin-2-yl}-N-[3-(trifluoromethyl)phenyl]piperazine-1-carboxamide] |
| < 50 nM | C[C@H]1CN(c2nccnc2OCc2ccncc2)CCN1C(=O)Nc1cccc(C(F)(F)F)c1 [Example 81, (2S)-2-methyl-4-{3-[(pyridin-4-ylmethyl)oxy]pyrazin-2-yl}-N-[3-(trifluoromethyl)phenyl]piperazine-1-carboxamide] |
| 50 to 1000 nM | O=C(Nc1cc(C(F)(F)F)cc(C(F)(F)F)c1)N1CCN(c2nsnc2Oc2ccc3[nH]ccc3c2)CC1 [Example 12] |

| IC50 | Compound |
| --- | --- |
| 50 to 1000 nM | C[C@H]1CN(c2nsnc2OCc2ccncc2)CCN1C(=O)Nc1cc(C(F)(F)F)cc(C(F)(F)F)c1 [Example 57, (2S)-N-[3,5-bis(trifluoromethyl)phenyl]-2-methyl-4-{4-[(pyridin-4-ylmethyl)oxy]-1,2,5-thiadiazol-3-yl}piperazine-1-carboxamide] |
| 50 to 1000 nM | CN(C)CCNc1nccc(COc2nsnc2N2CCN(C(=O)Nc3cc(C(F)(F)F)cc(C(F)(F)F)c3)CC2)n1 [Example 119, N-[3,5-bis(trifluoromethyl)phenyl]-4-(4-{[(2-{[2-(dimethylamino)ethyl]amino}pyrimidin-4-yl)methyl]oxy}-1,2,5-thiadiazol-3-yl)piperazine-1-carboxamide] |
| < 50 nM | CN1CCN(CC(=O)Nc2cc(COc3cccnc3N3CCN(C(=O)Nc4cc(Cl)cc(Cl)c4)CC3)ccn2)CC1 [Example 213, N-(3,5-dichlorophenyl)-4-(3-{[(2-{[(4-methylpiperazin-1-yl)acetyl]amino}pyridin-4-yl)methyl]oxy}pyridin-2-yl)piperazine-1-carboxamide] |
| < 50 nM | CCN1CCC(OC(=O)Nc2cc(COc3nsnc3N3CCN(C(=O)Nc4cc(C(F)(F)F)cc(C(F)(F)F)c4)CC3)ccn2)CC1 [Example 157, 1-ethylpiperidin-4-yl {4-[({4-[4-({[3,5-bis(trifluoromethyl)phenyl]amino}carbonyl)piperazin-1-yl]-1,2,5-thiadiazol-3-yl}oxy)methyl]pyridin-2-yl}carbamate] |
| < 50 nM | COC(=O)Nc1nccc(COc2nsnc2N2CCN(C(=O)Nc3cc(C(F)(F)F)cc(C(F)(F)F)c3)CC2)n1 [Example 131, methyl {4-[({4-[4-({[3,5-bis(trifluoromethyl)phenyl]amino}carbonyl)piperazin-1-yl]-1,2,5-thiadiazol-3-yl}oxy)methyl]pyrimidin-2-yl}carbamate] |
| 50 to 1000 nM | Nc1nccc(COc2cccnc2N2CCN(C(=O)Nc3cccc(Cl)c3)CC2)n1 [Example 183, 4-(3-{[(2-aminopyrimidin-4-yl)methyl]oxy}pyridin-2-yl)-N-(3-chlorophenyl)piperazine-1-carboxamide] |
| 1000 to 10000 nM | Nc1nccc(COc2cccnc2N2CCN(C(=O)Nc3ccc(F)cc3)CC2)n1 [Example 187, 4-(3-{[(2-aminopyrimidin-4-yl)methyl]oxy}pyridin-2-yl)-N-(4-fluorophenyl)piperazine-1-carboxamide] |
| 1000 to 10000 nM | Nc1nccc(COc2ccccc2N2CCN(C(=O)Nc3cccc(F)c3)CC2)n1 [Example 269, 4-(2-{[(2-aminopyrimidin-4-yl)methyl]oxy}phenyl)-N-(3-fluorophenyl)piperazine-1-carboxamide] |
| ≥ 10000 nM | CCNC(=O)N1CCN(c2ncccc2OCc2ccnc(N)n2)CC1 [Example 205, 4-(3-{[(2-aminopyrimidin-4-yl)methyl]oxy}pyridin-2-yl)-N-ethylpiperazine-1-carboxamide] |
| < 50 nM | Nc1nccc(COc2cccnc2N2CCN(C(=O)Nc3cc(Cl)cc(Cl)c3)CC2)n1 [Example 197, 4-(3-{[(2-aminopyrimidin-4-yl)methyl]oxy}pyridin-2-yl)-N-(3,5-dichlorophenyl)piperazine-1-carboxamide] |
| 50 to 1000 nM | CC1CN(c2nsnc2OCc2ccncc2)CCN1C(=O)Nc1cc(C(F)(F)F)cc(C(F)(F)F)c1 (stereo not shown) [Example 22] |
| < 50 nM | CCc1cccc(NC(=O)N2CCN(c3ccccc3OCc3ccnc(N)n3)CC2)c1 [Example 256, 4-(2-{[(2-aminopyrimidin-4-yl)methyl]oxy}phenyl)-N-(3-ethylphenyl)piperazine-1-carboxamide] |
| < 50 nM | CN1CCN(CC(=O)Nc2cc(COc3cccnc3N3CCN(C(=O)Nc4cccc(C5CC5)c4)CC3)ccn2)CC1 [Example 209, N-(3-cyclopropylphenyl)-4-(3-{[(2-{[(4-methylpiperazin-1-yl)acetyl]amino}pyridin-4-yl)methyl]oxy}pyridin-2-yl)piperazine-1-carboxamide] |
| 50 to 1000 nM | Nc1nccc(COc2nsnc2N2CCN(C(=O)Nc3cc(C(F)(F)F)ccc3F)CC2)n1 [Example 232, 4-(4-{[(2-aminopyrimidin-4-yl)methyl]oxy}-1,2,5-thiadiazol-3-yl)-N-[2-fluoro-5-(trifluoromethyl)phenyl]piperazine-1-carboxamide] |
| 50 to 1000 nM | CCCCNc1cc(COc2nsnc2N2CCN(C(=O)Nc3cc(C(F)(F)F)cc(C(F)(F)F)c3)CC2)ccn1 [Example 114, N-[3,5-bis(trifluoromethyl)phenyl]-4-[4-({[2-(butylamino)pyridin-4-yl]methyl}oxy)-1,2,5-thiadiazol-3-yl]piperazine-1-carboxamide] |
